Data published in the RepoRT retention time repository (doi:10.1039/c4mb00346b).

assay: HILIC, Merck SeQuant ZIC-pHILIC, 150 × 2.1 mm, 5 µm, 0.1 mL/min, estimated dead time 3.3 min; A: acetonitrile; B: water + 10 mM ammonium carbonate; gradient (min/%B) 0/20 30/80; details: stereoisomer not certain

| LC retention time | Structure (SMILES) |
| --- | --- |
| 14.8 min | NC(=O)C1=CN(C2OC(COP(=O)(O)OP(=O)(O)OCC3OC(n4cnc5c(N)ncnc54)C(OP(=O)(O)O)C3O)C(O)C2O)C=CC1 (stereo not drawn) [NADPH] |
| 16.5 min | O=P(O)(O)OCC1OC(OP(=O)(O)OP(=O)(O)O)C(O)C1O [PRPP (5-Phospho-alpha-D-ribose 1-diphosphate)] |
| 10.4 min | O=C(O)C1(O)CC(O)C(O)C(O)C1 (stereo not drawn) [Quinic acid] |
| 11.2 min | Nc1ncnc2c1ncn2C1OC(CSCCC([NH3+])C(=O)[O-])C(O)C1O (stereo not drawn) [S-Adenosyl-homocysteine] |
| 14.2 min | C[S+](CCC(N)C(=O)[O-])CC1OC(n2cnc3c(N)ncnc32)C(O)C1O (stereo not drawn) [S-Adenosyl-methionine] |
| 10.6 min | Nc1ncnc2c1ncn2C1OC(CSCC(N)C(=O)O)C(O)C1O (stereo not drawn) [S-adenosyl-cysteine] |
| 14.7 min | O=P(O)(O)OCC1OC(OC2OC(CO)C(O)C(O)C2O)C(O)C(O)C1O (stereo not drawn) [Trehalose-6-phosphate] |
| 13.6 min | OCC1OC(OC2OC(CO)C(O)C(O)C2O)C(O)C(O)C1O (stereo not drawn) [Trehalose] |
| 10.3 min | NC(Cc1ccc(O)cc1)C(=O)O (stereo not drawn) [Tyrosine] |
| 12.8 min | CC(=O)NC1C(OP(=O)(O)OP(=O)(O)OCC2OC(n3ccc(=O)[nH]c3=O)C(O)C2O)OC(CO)C(O)C1O (stereo not drawn) [UDP-acetyl-glucosamine] |
| 16.5 min | O=C(O)C1OC(OP(=O)(O)OP(=O)(O)OCC2OC(n3ccc(=O)[nH]c3=O)C(O)C2O)C(O)C(O)C1O (stereo not drawn) [UDP-glucuronate] |
| 14 min | O=c1ccn(C2OC(COP(=O)(O)OP(=O)(O)O)C(O)C2O)c(=O)[nH]1 (stereo not drawn) [UDP] |
| 12.6 min | O=c1ccn(C2OC(COP(=O)(O)O)C(O)C2O)c(=O)[nH]1 (stereo not drawn) [UMP] |
| 15.1 min | O=c1ccn(C2OC(COP(=O)(O)OP(=O)(O)OP(=O)(O)O)C(O)C2O)c(=O)[nH]1 (stereo not drawn) [UTP] |
| 7.2 min | O=c1cc[nH]c(=O)[nH]1 [Uracil] |
| 7.1 min | O=c1ccn(C2OC(CO)C(O)C2O)c(=O)[nH]1 (stereo not drawn) [Uridine] |
| 14.4 min | OC1C(O)C(O)C(O)C(O)C1O (stereo not drawn) [myo-Inositol] |

The remaining lines, values behind:

| Structure (SMILES) | LC retention time |
| --- | --- |
| NC(=O)c1cccnc1 [Nicotinamide] | 4.7 min |
| CCCCCCCC(=O)OC(CC(=O)[O-])C[N+](C)(C)C (stereo not drawn) [Octanoyl-carnitine] | 4.1 min |
| CCC(NC(=O)CCC(N)C(=O)O)C(=O)NCC(=O)O (stereo not drawn) [Ophthalmic acid] | 11.2 min |
| NCCCC(N)C(=O)O (stereo not drawn) [Ornithine] | 20.8 min |
| CC(C)(CO)C(O)C(=O)NCCC(=O)O (stereo not drawn) [Pantothenate] | 6.1 min |
| NC(Cc1ccccc1)C(=O)O (stereo not drawn) [Phenylalanine] | 7.3 min |
| CN(CC(=O)O)C(N)=NP(=O)(O)O [Phosphocreatine] | 12.7 min |
| C=C(OP(=O)(O)O)C(=O)[O-] [Phosphoenolpyruvate] | 15.1 min |
| O=C(O)C1CCCN1 (stereo not drawn) [Proline] | 10.2 min |
| CCC(=O)OC(CC(=O)[O-])C[N+](C)(C)C (stereo not drawn) [Propionyl-carnitine] | 7.2 min |
| O=C(O)c1cccnc1C(=O)O [Quinolinic acid] | 12.7 min |
| CSc1ncc(CC(C(=O)[O-])[N+](C)(C)C)[nH]1 (stereo not drawn) [S-Methyl-ergothioneine] | 7.9 min |
| Nc1c(C(=O)NC(CC(=O)O)C(=O)O)ncn1C1OC(COP(=O)(O)O)C(O)C1O (stereo not drawn) [SAICAR] | 17.1 min |
| NC(CCCCNC(CCC(=O)O)C(=O)O)C(=O)O (stereo not drawn) [Saccharopine] | 13.3 min |
| O=C(CO)C(O)C(O)C(O)C(O)COP(=O)(O)O (stereo not drawn) [Sedoheptulose-7-phosphate] | 13.7 min |
| NC(CO)C(=O)O (stereo not drawn) [Serine] | 13.1 min |
| O=C(O)CCC(=O)O [Succinate] | 12.6 min |
| NCCS(=O)(=O)O [Taurine] | 12.1 min |
| CC(O)C(N)C(=O)O (stereo not drawn) [Threonine] | 11.7 min |
| C[N+](C)(C)C(Cc1cnc[nH]1)C(=O)[O-] (stereo not drawn) [Trimethyl-histidine (hercynine)] | 9.7 min |
| C[N+](C)(C)CCCCC(N)C(=O)[O-] (stereo not drawn) [Trimethyl-lysine] | 20.7 min |
| C[N+](C)(C)C(Cc1c[nH]c2ccccc12)C(=O)[O-] (stereo not drawn) [Trimethyl-tryptophan (hypaphorine)] | 6 min |
| NC(Cc1c[nH]c2ccccc12)C(=O)O (stereo not drawn) [Tryptophan] | 8.7 min |
| O=c1[nH]c(=O)c2[nH]c(=O)[nH]c2[nH]1 [Urate] | 10.7 min |
| CC(C)C(N)C(=O)O (stereo not drawn) [Valine] | 9.8 min |
| O=C(O)C=C(CC(=O)O)C(=O)O [cis-Aconitate] | 15.5 min |
